EP4813978A1, “COMPOUND TARGETING UBIQUITIN KRAS PROTEIN DEGRADATION AGENT, AND USE THEREOF” (Betta Pharmaceuticals Co., Ltd, priority 2023, dated 2025)
Values belong to the compound of their own block, whether it stands above or below them.

Experiments:
MKN-1 = test: Cell proliferation assay (Cell-titer Glo), MKN-1; type: cell-based; conditions: Homo sapiens, MKN-1, KRAS WT-Amp, 96 h
Procedure: (§1) Cells with different mutations were seeded in low-attachment transparent 96-well plates at the seeding densities shown in Table 1, and incubated overnight in a cell culture incubator. After the cells adhered, the test compounds were added to the 96-well plates at final concentrations of 20000 nM, 5000 nM, 1250 nM, 312.5 nM, 78.13 nM, 19.53 nM, 4.88 nM, 1.22 nM, 0.31 nM, 0 nM (the final concentration of DMSO was 0.25% in all wells). After culturing at 37°C for 96 h, 50 µL of Cell-titer Glo working solution was added to each well. The plates were shaken to mix and then incubated at room temperature for 10 min. Luminescence values were read on a multimode microplate reader, and the luminescence data were converted into percentage inhibition. The percentage of cell proliferation inhibition was calculated according to the following formula: Percentage inhibition = (1−(TestValue−Blank)/(MaxValue−Blank)) × 100% [formula]
(§2) ("Max value" is from the 0.25% DMSO control wells, "Blank" is from the blank medium control wells, and "Test Value" is from the compound-treated wells).
(§3) Curve fitting was performed using GraphPad Prism software to obtain IC50 (nM) values.

Panc0403 = test: Cell proliferation assay (Cell-titer Glo), Panc0403; type: cell-based; conditions: Homo sapiens, Panc 04.03, Panc0403, KRAS G12D, 96 h
Procedure: as §1, §2, §3

[1] = PK study in ICR mice, intravenous single administration; type: in vivo; conditions: female, 3 mg/kg
Procedure: Compound 115 was mixed with the vehicle 10% DMSO/5% Solutol/85% physiological saline, vortexed and sonicated to prepare a 0.6 mg/mL clear solution. Female ICR mice aged 6 to 7 weeks were selected, not fasted, and administered Compound 115 intravenously. Whole blood was collected at certain time points. Drug concentrations were analyzed by LC-MS/MS method, and pharmacokinetic parameters were calculated using Phoenix WinNonlin software (Pharsight, USA). Table 3. Mouse PK data for intravenous single administration of Compound 115

[2] = PK study in Beagle dogs, intravenous single administration; type: in vivo; conditions: one female and one male, 3 mg/kg
Procedure: Compound 115 was mixed with the vehicle 10% DMSO/5% Solutol/85% physiological saline, vortexed and sonicated to prepare a 1.5 mg/mL clear intravenous injection solution. Beagle dogs weighing approximately 10 kg (half male, half female) were selected, not fasted, and administered Compound 115 intravenously. Whole blood samples were collected intravenously at 5 min, 15 min, 30 min, 1 h, 2 h, 4 h, 6 h, 8 h, 10 h, 24 h, 48 h, and 72 h. Drug concentrations were analyzed by LC-MS/MS method, and pharmacokinetic parameters were calculated using Phoenix WinNonlin software (Pharsight, USA). Table 5. Beagle Dog PK data for intravenous single administration of Compound 115

[3] = PK study in SD rats, intravenous single administration; type: in vivo; conditions: male, 3 mg/kg
Procedure: Compound 115 was mixed with the vehicle 10% DMSO/5% Solutol/85% physiological saline, vortexed and sonicated to prepare a 1.5 mg/mL clear solution. Male SD rats aged 6 to 7 weeks were selected, fasted for 8 h, and then administered Compound 115 intravenously. Whole blood was collected at certain time points. Drug concentrations were analyzed by LC-MS/MS method, and pharmacokinetic parameters were calculated using Phoenix WinNonlin software (Pharsight, USA). Table 4. Rat PK data for intravenous single administration of Compound 115

AGS = test: Cell proliferation assay (Cell-titer Glo), AGS; type: cell-based; conditions: Homo sapiens, KRAS G12D, 96 h
Procedure: as §1, §2, §3

SW620 = test: Cell proliferation assay (Cell-titer Glo), SW620; type: cell-based; conditions: Homo sapiens, SW-620, SW620, KRAS G12V, 96 h
Procedure: as §1, §2, §3

HCT116 = test: Cell proliferation assay (Cell-titer Glo), HCT116; type: cell-based; conditions: Homo sapiens, HCT-116, HCT116, KRAS G13D, 96 h
Procedure: as §1, §2, §3

AsPC-1 = test: Cell proliferation assay (Cell-titer Glo), AsPC-1; type: cell-based; conditions: Homo sapiens, ASPC1, AsPC-1, KRAS G12D, 96 h
Procedure: as §1, §2, §3

H358 = test: Cell proliferation assay (Cell-titer Glo), H358; type: cell-based; conditions: Homo sapiens, NCI-H358, H358, KRAS G12C, 96 h
Procedure: as §1, §2, §3

Mia-Paca2 = test: Cell proliferation assay (Cell-titer Glo), Mia-Paca2; type: cell-based; conditions: Homo sapiens, MIA PaCa-2, Mia-Paca2, KRAS G12C, 96 h
Procedure: as §1, §2, §3

IC50 (MKN-1): 0.7 nM | IC50 (Panc0403): 5.9 nM | Cl_obs [1]: 13.7 mL/min/kg | Vss_obs [1]: 9.23 L/kg | AUC(0-t) ([1]; mouse, in vivo): 3710 ng·h/mL | C0 ([1]; mouse, in vivo): 7510 ng/mL | half-life ([1]; mouse, in vivo): 810 min | AUC(0-t) ([2]; dog, in vivo): 20700 ng·h/mL | C0 ([2]; dog, in vivo): 22700 ng/mL | half-life ([2]; dog, in vivo): 1400 min | Cl_obs [2]: 1.96 mL/min/kg | Vss_obs [2]: 1.82 L/kg | Cl_obs [3]: 5.44 mL/min/kg | Vss_obs [3]: 5.06 L/kg | AUC(0-t) ([3]; rat, in vivo): 9170 ng·h/mL | C0 ([3]; rat, in vivo): 17300 ng/mL | half-life ([3]; rat, in vivo): 762 min | IC50 (AGS): 0.9 nM | IC50 (SW620): 8 nM | IC50 (HCT116): 20 nM | IC50 (AsPC-1): 1.9 nM
SMILES: CCc1c(F)ccc2cc(O)cc(-c3ncc4c(N5CCOC[C@@](C)(O)C5)nc(OCC5(CN6CCC7(CCN(Cc8cnc(-c9cn([C@H](C(=O)N%10C[C@H](O)C[C@H]%10C(=O)N[C@@H](C)c%10ccc(-c%11scnc%11C)cc%10)C(C)C)nn9)cn8)CC7)CC6)CC5)nc4c3F)c12 [Compound 115, (2S,4R)-1-((S)-2-(4-(5-((9-((1-(((7-(8-ethyl-7-fluoro-3-hydroxynaphthalen-1-yl)-8-fluoro-4-((S)-6-hydroxy-6-methyl-1,4-oxazepan-4-yl)pyrido[4,3-d]pyrimidin-2-yl)oxy)methyl)cyclopropyl)methyl)-3,9-diazaspiro[5.5]undecan-3-yl)methyl)pyrazin-2-yl)-1H-1,2,3-triazol-1-yl)-3-methylbutanoyl)-4-hydroxy-N-((S)-1-(4-(4-methylthiazol-5-yl)phenyl)ethyl)pyrrolidine-2-carboxamide]

IC50 (H358): 8.4 nM | IC50 (Mia-Paca2): 5.3 nM | IC50 (AGS): 4.4 nM | IC50 (SW620): 15 nM
SMILES: CCc1c(F)ccc2cc(O)cc(-c3ncc4c(N5CCOC[C@@](C)(O)C5)nc(OCC5(CN6CCC(Oc7cnc(-c8cn([C@H](C(=O)N9C[C@H](O)C[C@H]9C(=O)N[C@@H](CN(C)C)c9ccc(-c%10scnc%10C)cc9)C(C)C)nn8)cn7)CC6)CC5)nc4c3F)c12 [Compound 131, (2S,4R)-N-((R)-2-(dimethylamino)-1-(4-(4-methylthiazol-5-yl)phenyl)ethyl)-1-((S)-2-(4-(5-((1-((1-(((7-(8-ethyl-7-fluoro-3-hydroxynaphthalen-1-yl)-8-fluoro-4-((S)-6-hydroxy-6-methyl-1,4-oxazepan-4-yl)pyrido[4,3-d]pyrimidin-2-yl)oxy)methyl)cyclopropyl)methyl)piperidin-4-yl)oxy)pyrazin-2-yl)-1H-1,2,3-triazol-1-yl)-3-methylbutanoyl)-4-hydroxypyrrolidine-2-carboxamide]

IC50 (MKN-1): 0.4 nM | IC50 (Panc0403): 6.5 nM | IC50 (AGS): 4.4 nM | IC50 (SW620): 20 nM | IC50 (AsPC-1): 2.6 nM
SMILES: CCc1c(F)ccc2cc(O)cc(-c3nc4c5c(nc(OCC6(CN7CCC(Oc8cnc(-c9cn([C@H](C(=O)N%10C[C@H](O)C[C@H]%10C(=O)N[C@@H](C)c%10ccc(-c%11scnc%11C)cc%10)C(C)C)nn9)cn8)CC7)CC6)nc5c3F)N3CCCOC[C@H]3CO4)c12 [Compound 112, (2S,4R)-1-((S)-2-(4-(5-((1-((1-((((S)-2-(8-ethyl-7-fluoro-3-hydroxynaphthalen-1-yl)-1-fluoro-5a, 6,9,10-tetrahydro-5H,8H-4,7-dioxa-3,10a,11,13-tetraazanaphtho[1,8-ab]heptalen-12-yl)oxy)methyl)cyclopropyl)methyl)piperidin-4-yl)oxy)pyrazin-2-yl)-1H-1,2,3-triazol-1-yl)-3-methylbutanoyl)-4-hydroxy-N-((S)-1-(4-(4-methylthiazol-5-yl)phenyl)ethyl)pyrrolidine-2-carboxamide]
